Consider 7 molecules from PMC5923397, “A New Breviane Spiroditerpenoid from the Marine-Derived Fungus Penicillium sp. TJ403-1” (Marine Drugs, 2018).

One data set concerns MM231. In words: Cytotoxicity assay (MTT), MM231. In kind it is cell-based, human. The following applies: MM231 (breast cancer), 48 h exposure. As for the experimental part:
(§1) Five human tumor cell lines (HL-60, MM231, A-549, HEP3B, and SW480), together with one non-cancerous cell line, the human normal colonic epithelial cell NCM460, were used in the cytotoxic activity assay. All cells were cultured in DMEM or RPMI-1640 medium (HyClone, Logan, UT, USA), supplemented with 10% fetal bovine serum (HyClone) at 37 °C in a humidified atmosphere with 5% CO2. The cell survival assay was performed using the MTT method. Briefly, 100 μL suspended cells at an initial density of 1 × 10^5 cells/mL were seeded into each well of the 96-well culture plates and allowed to adhere for 12 h before addition of the test compounds. […] After incubation, culture supernatants were removed and exchanged with medium containing 0.5 mg/mL MTT. Then, after 4 h incubation in darkness at 37 °C, the medium was removed, and cells were added with 100 μL dimethyl sulfoxide. The absorbance at 570 nm was measured and data are expressed as averages of three replicates. The value of inhibition was calculated by using the following formula: % inhibition = (1 − ODtreated/ODcontrol) × 100. The IC50 values were calculated by using a standard dose-response curve fitting with Prism (version 5.0, GraphPad Software, La Jolla, CA, USA).

The test system of a further data set is A-549. In words: Cytotoxicity assay (MTT), A-549. In kind it is cell-based, human. The following applies: 48 h exposure. As for the experimental part: as §1
The next data set concerns HEP3B. In words: Cytotoxicity assay (MTT), HEP3B. Type of data set: cell-based, human. The following applies: HEP3B (hepatic cancer), 48 h exposure. The protocol:
as §1

For the next data set, the system named is SW480. The data set is described as follows: Cytotoxicity assay (MTT), SW480. Type of data set: cell-based, human. The following applies: SW480 (colon cancer), 48 h exposure. The protocol:
as §1

The next data set relates to NCM460. The data set is described as follows: Cytotoxicity assay (MTT), normal colonic epithelial cell NCM460. Type of data set: cell-based, human. The following applies: for IC50: MTT, 48 h exposure. As for the experimental part: as §1
The test system of the next data set is HL-60. The data set is described as follows: Cytotoxicity assay (MTT), HL-60. Type of data set: cell-based. To be noted: Homo sapiens, HL-60 (acute leukemia), 48 h exposure. The protocol:
as §1

[1] abbreviates: Homo sapiens, A549, A-549 (lung cancer).

Regarding `N.N.[Cl][Pt][Cl]` [Cis-platin, cis-platin, reference compound], the IC50 came out at 3.84 ± 0.25 µM with MM231; 2.79 ± 0.36 µM in the data set on A-549 (A-549 (lung cancer)); 2.96 ± 0.22 µM in the data set on HEP3B; 1.42 ± 0.11 µM with SW480; 0.85 ± 0.07 µM in the data set with NCM460.

In the case of `CC(=O)O[C@H]1C(=O)[C@@]2(C)[C@H]([C@H](OC(=O)c3ccccc3)[C@]3(O)C[C@H](OC(=O)[C@H](O)[C@@H](NC(=O)c4ccccc4)c4ccccc4)C(C)=C1C3(C)C)[C@]1(OC(C)=O)CO[C@@H]1C[C@@H]2O` [Paclitaxel, paclitaxel, reference compound], the 50% inhibitory concentration (IC50) in the data set on HL-60, with MM231 (Homo sapiens), with A-549 (setting [1]), with HEP3B (Homo sapiens), in the data set on SW480 (Homo sapiens) and with NCM460 (Homo sapiens) was less than 0.008 µM each time.

`CC1=CC(O)C2C3(C)C(O)CC(=O)C(C)(C)C3CCC2(C)C12Cc1c(c(C)c(C)oc1=O)O2` (stereo not drawn) [compound 1, brevione O]: the IC50 in the data set on HL-60, in the data set on MM231 (Homo sapiens), with A-549 (setting [1]), in the data set with HEP3B (Homo sapiens), in the data set with SW480 (Homo sapiens) and with NCM460 (Homo sapiens) was greater than 40 µM each time.

Turning to `CC1=C[C@H](O)[C@@H]2[C@@]3(C)C=CC(=O)C(C)(C)[C@@H]3CC[C@@]2(C)[C@]12Cc1c(c(C)c(C)oc1=O)O2` [compound 2, brevione I], the IC50 is 4.92 ± 0.65 µM with HL-60; greater than 40 µM in the data set with MM231 (Homo sapiens); 8.6 ± 1.36 µM in the data set with A-549 (setting [1]); 5.5 ± 0.67 µM with HEP3B (Homo sapiens); 21.2 ± 2.72 µM with SW480 (Homo sapiens); greater than 40 µM with NCM460 (Homo sapiens). Moreover, in the data set on NCM460 (result in words), the “cytotoxic activity against the NCM460 cell” value is given as “no cytotoxic activity”.

For the molecule `CC1=C[C@H](O)[C@@H]2[C@@]3(C)CCC(=O)C(C)(C)[C@@H]3CC[C@@]2(C)[C@]12Cc1c(c(C)c(C)oc1=O)O2` [compound 3, brevione J], the IC50 was 25.6 ± 3.84 µM with HL-60; greater than 40 µM in the data set with MM231 (Homo sapiens); greater than 40 µM in the data set with A-549 (setting [1]); greater than 40 µM with HEP3B (Homo sapiens); greater than 40 µM in the data set with SW480 (Homo sapiens); greater than 40 µM in the data set on NCM460 (Homo sapiens).

Regarding `CC1=CC(=O)C[C@@H]2O[C@@H]3C=C(C)[C@@]45Oc6c(C)c(C)oc(=O)c6[C@@H]4O[C@H](O)[C@]54CC[C@@H]1[C@@]2(C)[C@@H]34` [compound 4, brevione H], the IC50 in the data set on HL-60, with MM231 (Homo sapiens), in the data set on A-549 (setting [1]), with HEP3B (Homo sapiens), in the data set with SW480 (Homo sapiens) and in the data set with NCM460 (Homo sapiens) was greater than 40 µM throughout.

Regarding `C=CC(C)(C)C12CC3C(=O)NC(C(C)C)C(=O)N3C1N(C(C)=O)c1ccccc12` (stereo not drawn) [compound 5, brevicompanine G], the IC50 in the data set with HL-60 was 21.8 ± 3.48 µM; with MM231 (Homo sapiens), greater than 40 µM; with A-549 (setting [1]), 18.4 ± 2.15 µM; in the data set with HEP3B (Homo sapiens), greater than 40 µM; in the data set with SW480 (Homo sapiens) it was greater than 40 µM; in the data set on NCM460 (Homo sapiens) it was greater than 40 µM.
